From paper PMC10600239, “Selective MCL-1 inhibitor ABBV-467 is efficacious in tumor models but is associated with cardiac troponin increases in patients” (Communications Medicine, 2023)
Values joined by “and” are separate entries in the source; they are usually repeats but may differ in a detail not shown here. Identical values can stand only once.

Test system: AMO-1 xenografts
Assay: AMO-1 xenograft efficacy (tumor volume, body weight); for Mortality Observation Day 34: key: EUTV: Euthanized: tumor volume
Type: in vivo, mouse
Set-up: key to Anti-tumor Activity vs. AMO-1 (DSMZ), Median / Anti-tumor Activity vs. AMO-1 (DSMZ), individual animal / Anti-tumor Activity vs. AMO-1 (DSMZ), Mean: tumor volume in mm^3 (length × width^2/2)
Conditions: for Starting Body Wt.: in g (unit assumed)
Procedure: All animal studies were conducted in accordance with the guidelines approved by the Institutional Animal Care and Use Committees of AbbVie. The research protocol was approved by In Vivo Pharmacology at AbbVie prior to study initiation but was not publicly registered or disclosed. Female C.B-17 SCID-beige mice (AMO-1, OPM-2, NCI-H929, and OCI-AML2 xenografts) and female NSG mice (MV4-11-Red.Fluc systemic) were purchased from Charles River Laboratories (Wilmington, MA). Animals were housed in a light cycle-controlled room with HEPA filtration at 22 °C. Animals had nesting and climbing cage topper as the primary environmental enrichment. Animals were inoculated subcutaneously in the right flank with 5 × 10^6 (AMO-1, OPM-2, NCI-H929, and OCI-AML2) or intravenous (IV) with 5 × 10^6 (MV4-11-Red.Fluc). The inoculation volume (0.2 mL) comprised a 50:50 mixture of cells in growth media and Matrigel (BD Biosciences) for subcutaneous injections and 100% phosphate-buffered saline for IV administration. All cell lines used in this publication were authenticated using IDEXX for STR profiling as well as their IMPACT and human IMPACT panels for pathogen screening. Electronic calipers were used to measure the length and width of each tumor 2 to 3 times per week. Tumor volume was estimated by applying the following equation: volume = length × width^2/2. All groups remained blinded during measurements and dosing; only veterinary staff were aware of group identity. When tumors reached approximately 200 mm^3, mice were randomized by match and distributed into treatment and control groups. All xenograft trials were conducted using 5 to 10 mice per group, and all mice were ear tagged and monitored individually throughout the studies. […] Tumor burden in the systemic MV4-11-Red.Fluc experiment was measured using an IVIS® spectrum from PerkinElmer by taking the total photon flux of the entire dorsal side of an individual mouse. […] A background control mouse that was tumor naive but received D-Luciferin was placed in the upper left corner of each image. The total flux from this animal was subtracted from the total flux of each animal present in the image.
For in vivo studies, maximal tumor growth inhibition (TGI) was calculated as the greatest treatment response using the following equation: Maximal TGI = (1 − mean tumor volume of the treated group/mean tumor volume of the vehicle control group) × 100. The tumor growth delay (TGD) percentage was determined as the percentage increase of the median time period for the treatment group to reach an arbitrary tumor volume of 1000 mm^3 relative to the vehicle control group. […] A power analysis was conducted using historical data to determine the number of animals required to yield significance of 0.05 at a 30% difference. […] Data from experiments in vivo were analyzed using the student’s t-test for TGI values and the Mann–Whitney U test for TGD using Excel and GraphPad Prism. Fisher’s exact test was used to probe significance of differences in response frequency.

[1] = 3.13 mg/kg IV QDx1, Day 13 (day before dosing begins)
[2] = 3.13 mg/kg QDx1 IV, Day 26, n=8
[3] = 3.13 mg/kg QDx1 IV, Day 28, n=8
[4] = 3.13 mg/kg QDx1 IV, SCID-beige mice, Day 21
[5] = 3.13 mg/kg QDx1 IV, SCID-beige mice, Day 23
[6] = 3.13 mg/kg QDx1 IV, SCID-beige mice, Day 23, mean(T)/mean(C)
[7] = 3.13 mg/kg QDx1 IV, SCID-beige mice, Day 23, median(T)/median(C)

## Cc1c(Cl)c2c(Cl)c(C)c1-c1c(-c3ccc(F)cc3)sc3ncnc(c13)O[C@@H](C(=O)O)Cc1cc(ccc1OCc1ccnc(-c3ccc(OC[C@H]4COCCO4)cc3)n1)OC[C@@H](CN1CCN(C)CC1)O2 [Compound A-1747745.0]
3.13 mg/kg IV QDx1, AMO-1 xenograft, SCID-beige mice
  Starting Body Wt.: 21.625
3.13 mg/kg IV QDx1, clinical observation
  % Mortality: 100.00%
3.13 mg/kg IV QDx1, day 13
  Anti-tumor Activity vs. AMO-1 (DSMZ), Mean: 216.27
  Anti-tumor Activity vs. AMO-1 (DSMZ), Median: 216.30
  Anti-tumor Activity vs. AMO-1 (DSMZ), individual animal: 219 and 210 and 215 and 217 and 224 and 221 and 209 and 214
3.13 mg/kg IV QDx1, day 14
  Group Mean, Body Weight: 21.63 g
3.13 mg/kg IV QDx1, day 16
  Anti-tumor Activity vs. AMO-1 (DSMZ), Mean: 205.11
  Anti-tumor Activity vs. AMO-1 (DSMZ), Median: 207.59
  Anti-tumor Activity vs. AMO-1 (DSMZ), individual animal: 195 and 171 and 227 and 217 and 219 and 212 and 203 and 196
3.13 mg/kg IV QDx1, day 19
  Anti-tumor Activity vs. AMO-1 (DSMZ), Mean: 192.25
  Anti-tumor Activity vs. AMO-1 (DSMZ), Median: 202.67
  Anti-tumor Activity vs. AMO-1 (DSMZ), individual animal: 210 and 196 and 181 and 173 and 128 and 213 and 209 and 227
3.13 mg/kg IV QDx1, day 21
  Anti-tumor Activity vs. AMO-1 (DSMZ), Mean: 316.72
  Anti-tumor Activity vs. AMO-1 (DSMZ), Median: 336.29
  Anti-tumor Activity vs. AMO-1 (DSMZ), individual animal: 248 and 370 and 418 and 238 and 111 and 349 and 477 and 324
3.13 mg/kg IV QDx1, day 23
  Anti-tumor Activity vs. AMO-1 (DSMZ), Mean: 463.98
  Anti-tumor Activity vs. AMO-1 (DSMZ), Median: 467.27
  Anti-tumor Activity vs. AMO-1 (DSMZ), individual animal: 595 and 419 and 553 and 359 and 205 and 462 and 647 and 473
  Group Mean, Body Weight: 22.13 g
3.13 mg/kg IV QDx1, day 26
  Anti-tumor Activity vs. AMO-1 (DSMZ), Mean: 740.25
  Anti-tumor Activity vs. AMO-1 (DSMZ), Median: 757.36
  Anti-tumor Activity vs. AMO-1 (DSMZ), individual animal: 859 and 654 and 702 and 664 and 464 and 884 and 882 and 812
3.13 mg/kg IV QDx1, day 28
  Anti-tumor Activity vs. AMO-1 (DSMZ), Mean: 1102.63
  Anti-tumor Activity vs. AMO-1 (DSMZ), Median: 1024.93
  Anti-tumor Activity vs. AMO-1 (DSMZ), individual animal: 1383 and 753 and 968 and 881 and 872 and 1157 and 1725 and 1082
  Group Mean, Body Weight: 22.38 g
3.13 mg/kg IV QDx1, day 30
  Anti-tumor Activity vs. AMO-1 (DSMZ), Mean: 1440.23
  Anti-tumor Activity vs. AMO-1 (DSMZ), Median: 1430.49
  Anti-tumor Activity vs. AMO-1 (DSMZ), individual animal: 1812 and 984 and 1324 and 1150 and 1149 and 1537 and 1916 and 1649
3.13 mg/kg IV QDx1, day 34
  Anti-tumor Activity vs. AMO-1 (DSMZ), Mean: 2233.47
  Anti-tumor Activity vs. AMO-1 (DSMZ), Median: 2203.67
  Anti-tumor Activity vs. AMO-1 (DSMZ), individual animal: 2874 and 1660 and 1699 and 1719 and 1802 and 2605 and 2742 and 2768
[1]
  Xenograft AMO-1 (DSMZ) tumor volume Day 13, Mean: 216.27 mm³
  Xenograft AMO-1 (DSMZ) tumor volume Day 13, Median: 216.30 mm³
3.13 mg/kg IV QDx1, Day 13 (day before dosing begins), mean(T)/mean(C)
  % T/C (mean): 100.07%
3.13 mg/kg IV QDx1, Day 13 (day before dosing begins), median(T)/median(C)
  % T/C (median): 100.06%
3.13 mg/kg IV QDx1, SCID-beige female mice, Day 13 (randomization, day before dosing begins)
  Xenograft AMO-1 (DSMZ) (mm³) Day 13, individual animals: 219 mm³ and 210 mm³ and 215 mm³ and 217 mm³ and 224 mm³ and 221 mm³ and 209 mm³ and 214 mm³
[2]
  Xenograft AMO-1 (DSMZ) tumor volume Day 26, Mean: 740.25 mm³
  Xenograft AMO-1 (DSMZ) tumor volume Day 26, Median: 757.36 mm³
3.13 mg/kg QDx1 IV, Day 26, mean(T)/mean(C)
  % T/C (mean) tumor volume Day 26: 46.99%
3.13 mg/kg QDx1 IV, Day 26, median(T)/median(C)
  % T/C (median) tumor volume Day 26: 47.41%
[3]
  Xenograft AMO-1 (DSMZ) tumor volume Day 28, Mean: 1102.63 mm³
  Xenograft AMO-1 (DSMZ) tumor volume Day 28, Median: 1024.93 mm³
3.13 mg/kg QDx1 IV, Day 28, mean(T)/mean(C)
  % T/C (mean) tumor volume Day 28: 53.81%
3.13 mg/kg QDx1 IV, Day 28, median(T)/median(C)
  % T/C (median) tumor volume Day 28: 53.13%
3.13 mg/kg QDx1 IV, SCID-beige female mice, Day 26
  Xenograft AMO-1 (DSMZ) tumor volume Day 26, individual animals: 859 mm³ and 654 mm³ and 702 mm³ and 664 mm³ and 464 mm³ and 884 mm³ and 882 mm³ and 812 mm³
3.13 mg/kg QDx1 IV, SCID-beige female mice, Day 28
  Xenograft AMO-1 (DSMZ) tumor volume Day 28, individual animals: 1383 mm³ and 753 mm³ and 968 mm³ and 881 mm³ and 872 mm³ and 1157 mm³ and 1725 mm³ and 1082 mm³
[4]
  Xenograft AMO-1 (DSMZ) Day 21, Mean: 316.72 mm³
  Xenograft AMO-1 (DSMZ) Day 21, Median: 336.29 mm³
3.13 mg/kg QDx1 IV, SCID-beige mice, Day 21, individual tumor volumes
  Xenograft AMO-1 (DSMZ) (mm³) Day 21, individual animals: 248 mm³ and 370 mm³ and 418 mm³ and 238 mm³ and 111 mm³ and 349 mm³ and 477 mm³ and 324 mm³
3.13 mg/kg QDx1 IV, SCID-beige mice, Day 21, mean(T)/mean(C)
  % T/C (mean), Tumor Volume Day 21: 49.55%
3.13 mg/kg QDx1 IV, SCID-beige mice, Day 21, median(T)/median(C)
  % T/C (median), Tumor Volume Day 21: 63.86%
[5]
  Xenograft AMO-1 (DSMZ) Day 23 Mean: 463.98 mm³
  Xenograft AMO-1 (DSMZ) Day 23 Median: 467.27 mm³
3.13 mg/kg QDx1 IV, SCID-beige mice, Day 23, individual tumor volumes
  Xenograft AMO-1 (DSMZ) (mm³) Day 23, individual animals: 595 mm³ and 419 mm³ and 553 mm³ and 359 mm³ and 205 mm³ and 462 mm³ and 647 mm³ and 473 mm³
[6]
  % T/C (mean), body weight Day 23: 104.12%
  % T/C (mean), tumor volume Day 23: 43.45%
[7]
  % T/C (median), body weight Day 23: 104.12%
  % T/C (median), tumor volume Day 23: 48.01%
3.13 mg/kg QDx1 IV, Day 30, SCID-beige female mice, tumor volume per animal
  Xenograft AMO-1 (DSMZ) (mm³) Day 30 (individual animals): 1812 mm³ and 984 mm³ and 1324 mm³ and 1150 mm³ and 1149 mm³ and 1537 mm³ and 1916 mm³ and 1649 mm³
3.13 mg/kg QDx1 IV, Day 30, group mean
  Xenograft AMO-1 (DSMZ) (mm³) Day 30 Mean: 1440.23 mm³
3.13 mg/kg QDx1 IV, Day 30, group median
  Xenograft AMO-1 (DSMZ) (mm³) Day 30 Median: 1430.49 mm³
3.13 mg/kg QDx1 IV, Day 34, SCID-beige female mice, tumor volume per animal
  Xenograft AMO-1 (DSMZ) (mm³) Day 34 (individual animals): 2874 mm³ and 1660 mm³ and 1699 mm³ and 1719 mm³ and 1802 mm³ and 2605 mm³ and 2742 mm³ and 2768 mm³
3.13 mg/kg QDx1 IV, Day 34, group mean
  Xenograft AMO-1 (DSMZ) (mm³) Day 34 Mean: 2233.47 mm³
3.13 mg/kg QDx1 IV, Day 34, group median
  Xenograft AMO-1 (DSMZ) (mm³) Day 34 Median: 2203.67 mm³
3.13 mg/kg QDx1 IV, Day 34, per animal
  Mortality Observation Day 34: EUTV
6.25 mg/kg IV QDx1, AMO-1 xenograft, SCID-beige mice
  Starting Body Wt.: 21.625
6.25 mg/kg IV QDx1, clinical observation
  % Mortality: 100.00%
6.25 mg/kg IV QDx1, day 13
  Anti-tumor Activity vs. AMO-1 (DSMZ), Mean: 216.25
  Anti-tumor Activity vs. AMO-1 (DSMZ), Median: 216.39
6.25 mg/kg IV QDx1, day 14
  Group Mean, Body Weight: 21.63 g
6.25 mg/kg IV QDx1, day 16
  Anti-tumor Activity vs. AMO-1 (DSMZ), Mean: 172.06
  Anti-tumor Activity vs. AMO-1 (DSMZ), Median: 173.79
6.25 mg/kg IV QDx1, day 19
  Anti-tumor Activity vs. AMO-1 (DSMZ), Mean: 133.62
  Anti-tumor Activity vs. AMO-1 (DSMZ), Median: 134.81
6.25 mg/kg IV QDx1, day 21
  Anti-tumor Activity vs. AMO-1 (DSMZ), Mean: 175.92
  Anti-tumor Activity vs. AMO-1 (DSMZ), Median: 202.13
6.25 mg/kg IV QDx1, day 23
  Anti-tumor Activity vs. AMO-1 (DSMZ), Mean: 218.85
